For the first test, the target named is T1, HGFR (Homo sapiens, UniProt P08581).
T1 construct: purchased Upstate 14-526
T1 sequence (P08581 974-1390 limits assumed): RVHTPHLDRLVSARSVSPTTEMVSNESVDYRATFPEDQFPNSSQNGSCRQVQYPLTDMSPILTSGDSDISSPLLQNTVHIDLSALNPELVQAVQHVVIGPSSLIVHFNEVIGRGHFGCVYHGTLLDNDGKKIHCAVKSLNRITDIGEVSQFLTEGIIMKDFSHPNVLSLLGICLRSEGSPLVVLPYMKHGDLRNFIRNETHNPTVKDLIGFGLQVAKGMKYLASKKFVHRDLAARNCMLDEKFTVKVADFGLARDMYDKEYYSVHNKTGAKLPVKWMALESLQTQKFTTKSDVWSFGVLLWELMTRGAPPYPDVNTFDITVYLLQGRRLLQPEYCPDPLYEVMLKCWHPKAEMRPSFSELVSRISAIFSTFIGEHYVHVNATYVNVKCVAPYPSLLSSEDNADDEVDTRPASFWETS
Description: HGFR continuous-coupled spectrophotometric assay (tyrosine kinase activity on Met-2 substrate peptide). Particulars: HGFR 50 nM, Met-2 peptide 0.5 mM, ATP 300 μM, 37° C., absorbance 340 nm; read-out: Ki. It counts as biochemical.
Broadly, the Ki is a dissociation constant, usually derived from enzyme kinetics or from competition with a known ligand. Turning to `CN(C)[C@H]1CCN(c2cnc3nnn(Cc4ccc5ncccc5c4)c3n2)C1` [Example 29, (S)-N,N-dimethyl-1-(3-(quinolin-6-ylmethyl)-3H-[1,2,3]triazolo[4,5-b]pyrazin-5-yl)pyrrolidin-3-amine], the Ki is 0.024 µM.

In the case of `C[C@@H](CO)Nc1cnc2nnn(Cc3ccc4ncccc4c3)c2n1` [Example 118, (2S)-2-{[1-(quino-lin-6-yl-methyl)-1H-[1,2,3]tri-azolo[4,5-b]pyra-zin-6-yl]ami-no}propan-1-ol], the Ki is 0.041 µM. Still for that read-out and setting: next, `CN(C)C(=O)CCNc1cnc2nnn(Cc3ccc4ncccc4c3)c2n1` [Example 121, N,N-dimethyl-N~3~-[1-(quino-lin-6-yl-methyl)-1H-[1,2,3]tri-azolo[4,5-b]pyra-zin-6-yl]-beta-alaninamide]: 0.022 µM; `OCc1ccc(-c2cnc3nnn(Cc4ccc5ncccc5c4)c3n2)cc1` [Example 36, (4-(3-(quinolin-6-ylmethyl)-3H-[1,2,3]triazolo[4,5-b]pyrazin-5-yl)phenyl)methanol]: 0.002 µM; `CCC1C(=O)NCCN1c1cnc2nnn(Cc3ccc4ncccc4c3)c2n1` (stereo not shown) [Example 97, 3-ethyl-4-[1-(quino-lin-6-yl-methyl)-1H-[1,2,3]tri-azolo[4,5-b]pyra-zin-6-yl]pipe-razin-2-one]: 0.02 µM. Still for that read-out and setting: the figure for `C[C@H]1CN(c2cnc3nnn(Cc4ccc5ncccc5c4)c3n2)C[C@]1(C)CO` [Example 107, {(3R,4R)-3,4-di-methyl-1-[1-(quino-lin-6-yl-methyl)-1H-[1,2,3]tri-azolo[4,5-b]pyra-zin-6-yl]pyrro-lidin-3-yl}meth-anol] is 0.047 µM; for `CC(C)(C)OC(=O)N[C@@H]1CCCN(c2cnc3nnn(Cc4ccc5ncccc5c4)c3n2)C1` [Example 202, (R)-tert-butyl 1-(3-(quino-lin-6-yl-methyl)-3H-[1,2,3]tri-azolo[4,5-b]pyra-zin-5-yl)pipe-ridin-3-ylcarbamate] it is 0.62 µM; for `CC(C)(C)OC(=O)N[C@H]1CCCN(c2cnc3nnn(Cc4ccc5ncccc5c4)c3n2)C1` [Example 203, (S)-tert-butyl 1-(3-(quino-lin-6-yl-methyl)-3H-[1,2,3]tri-azolo[4,5-b]pyra-zin-5-yl)pipe-ridin-3-ylcarbamate] it is 0.57 µM.

Consider `CNC(=O)c1cnc2nnn(Cc3ccc4ncccc4c3)c2n1` [Example 195, N-methyl-1-(quino-lin-6-yl-methyl)-1H-[1,2,3]tri-azolo[4,5-b]pyra-zine-6-carboxamide], for which the Ki is 0.117 µM. Same read-out and setting: next, `CC(=O)N1CC[C@@H](Nc2cnc3nnn(Cc4ccc5ncccc5c4)c3n2)C1` [Example 126, N-[(3R)-1-acetyl-pyrrolidin-3-yl]-1-(quino-lin-6-yl-methyl)-1H-[1,2,3]tri-azolo[4,5-b]pyra-zin-6-amine]: 0.016 µM. Still for that read-out and setting: next, `Cc1cn(-c2cnc3nnn(Cc4ccc5ncccc5c4)c3n2)cn1` [Example 16, 6-((6-(4-methyl-1H-imidazol-1-yl)-1H-[1,2,3]triazolo[4,5-b]pyrazin-1-yl)methyl)-quinoline]: 0.003 µM; `CC(=O)N[C@H]1CCN(c2cnc3nnn(Cc4ccc5ncccc5c4)c3n2)C1` [Example 198, N-{(3S)-1-[1-(quino-lin-6-yl-methyl)-1H-[1,2,3]tri-azolo[4,5-b]pyra-zin-6-yl]pyrro-lidin-3-yl}acetamide]: 0.031 µM. Still for that read-out and setting: next, `O=c1[nH]cccc1CNc1cnc2nnn(Cc3ccc4ncccc4c3)c2n1` [Example 115, 3-({[1-(quinolin-6-yl-methyl)-1H-[1,2,3]tri-azolo[4,5-b]pyra-zin-6-yl]ami-no}meth-yl)pyridin-2(1H)-one]: 0.012 µM; `CC(C)(CO)Nc1cnc2nnn(Cc3ccc4ncccc4c3)c2n1` [Example 139, 2-methyl-2-{[1-(quino-lin-6-yl-methyl)-1H-[1,2,3]tri-azolo[4,5-b]pyra-zin-6-yl]ami-no}propan-1-ol]: 0.021 µM. For `CN(C)C1CCN(c2cnc3nnn(Cc4ccc5ncccc5c4)c3n2)CC1` [Example 27], the Ki was 0.045 µM.

In the case of `CCC(CO)Nc1cnc2nnn(Cc3ccc4ncccc4c3)c2n1` (stereo not shown) [Example 112, 2-{[1-(quinolin-6-yl-methyl)-1H-[1,2,3]tri-azolo[4,5-b]pyra-zin-6-yl]ami-no}butan-1-ol], the Ki was determined as 0.029 µM. On the same count and under the same terms, next, `CC(C)(C)OC(=O)NC1CCN(c2cnc3nnn(Cc4ccc5ncccc5c4)c3n2)CC1` [Example 34, tert-butyl 1-(3-(quinolin-6-ylmethyl)-3H-[1,2,3]triazolo[4,5-b]pyrazin-5-yl)piperidin-4-ylcarbamate]: 0.033 µM.

As for `c1cnc2ccc(Cn3nnc4ncc(-n5cccn5)nc43)cc2c1` [Example 22, 6-((6-(1H-pyrazol-1-yl)-1H-[1,2,3]triazolo[4,5-b]pyrazin-1-yl)methyl)-quinoline], the Ki turned out to be 0.012 µM. For the compound `COC(=O)c1cnc2nnn(Cc3ccc4ncccc4c3)c2n1` [Example 196, methyl 1-(quino-lin-6-yl-methyl)-1H-[1,2,3]tri-azolo[4,5-b]pyra-zine-6-carboxylate], the inhibition constant (Ki) was 0.174 µM.

As to `OCC1CCCN1c1cnc2nnn(Cc3ccc4ncccc4c3)c2n1` (stereo not shown) [Example 103, {1-[1-(quinolin-6-yl-methyl)-1H-[1,2,3]tri-azolo[4,5-b]pyra-zin-6-yl]pyrro-lidin-2-yl}methanol], the Ki stood at 0.039 µM.

With `C[C@H](O)CNc1cnc2nnn(Cc3ccc4ncccc4c3)c2n1` [Example 117, (2S)-1-{[1-(quino-lin-6-yl-methyl)-1H-[1,2,3]tri-azolo[4,5-b]pyra-zin-6-yl]ami-no}propan-2-ol], the inhibition constant Ki is 0.011 µM. Take `FC(F)CNc1cnc2nnn(Cc3ccc4ncccc4c3)c2n1` [Example 144, N-(2,2-di-fluoroethyl)-1-(quino-lin-6-yl-methyl)-1H-[1,2,3]tri-azolo[4,5-b]pyra-zin-6-amine]: the Ki was 0.003 µM. As to `OC1CCN(C2CCN(c3cnc4nnn(Cc5ccc6ncccc6c5)c4n3)C2)CC1` (stereo in doubt) [Example 170, 1-[(3R)-1-[1-(quino-lin-6-yl-methyl)-1H-[1,2,3]tri-azolo[4,5-b]pyra-zin-6-yl]pyrro-lidin-3-yl}pipe-ridin-4-ol], the inhibitory constant (Ki) turned out to be 0.021 µM. Same read-out and setting: next, `c1cnc2ccc(Cn3nnc4ncc(N5CCc6[nH]ncc6C5)nc43)cc2c1` [Example 98, 6-{[6-(1,4,6,7-tetra-hydro-5H-pyra-zolo[4,3-c]pyri-din-5-yl)-1H-[1,2,3]tri-azolo[4,5-b]pyra-zin-1-yl]meth-yl}quinoline]: 0.013 µM.

For `CC(C)Nc1cnc2nnn(Cc3ccc4ncccc4c3)c2n1` [Example 166, N-isopropyl-1-(quino-lin-6-yl-methyl)-1H-[1,2,3]tri-azolo[4,5-b]pyra-zin-6-amine], the inhibitory constant (Ki) came to 0.004 µM.

`CN(C)CCNC(=O)c1ccc(-c2cnc3nnn(Cc4ccc5ncccc5c4)c3n2)cc1` [Example 13, N-(2-(dimethylamino)ethyl)-4-(3-(quinolin-6-ylmethyl)-3H-[1,2,3]triazolo[4,5-b]pyrazin-5-yl)benzamide]: the Ki stood at 0.003 µM. Same read-out and setting: the figure for `Fc1cc2ncccc2cc1Cn1nnc2ncc(N3CC[C@@H](N4CCOCC4)C3)nc21` [Example 171, 7-fluoro-6-({6-[(3R)-3-morpho-lin-4-yl-pyrrolidin-1-yl]-1H-[1,2,3]tri-azolo[4,5-b]pyra-zin-1-yl}meth-yl)quinoline] is 0.01 µM. On the same count and under the same terms, the figure for `O=C(O)c1cnc2nnn(Cc3ccc4ncccc4c3)c2n1` [Example 194, 1-(quinolin-6-yl-methyl)-1H-[1,2,3]tri-azolo[4,5-b]pyra-zine-6-carboxylic acid] is 0.811 µM; for `NCCn1cc(-c2cnc3nnn(Cc4ccc5ncccc5c4)c3n2)cn1` [Example 2, 2-(4-(3-(quinolin-6-ylmethyl)-3H-[1,2,3]triazolo[4,5-b]pyrazin-5-yl)-1H-pyrazol-1-yl)ethanamine] it is 0.011 µM; for `Cc1n[nH]c(C)c1-c1cnc2nnn(Cc3ccc4ncccc4c3)c2n1` [Example 63, 6-[6-(3,5-Dimethyl-1H-pyrazol-4-yl)-[1,2,3]triazolo[4,5-b]pyrazin-1-ylmethyl]-quinoline] it is 0.022 µM. Same read-out and setting: next, `COc1cccc(-c2cnc3nnn(Cc4ccc5ncccc5c4)c3n2)c1` [Example 20, 6-((6-(3-methoxyphenyl)-1H-[1,2,3]triazolo[4,5-b]pyrazin-1-yl)methyl)-quinoline]: 0.003 µM; `CC(C)(C)OC(=O)N1CCN(c2cnc3nnn(Cc4ccc5ncccc5c4)c3n2)CC1` [Example 201, tert-butyl 4-(3-(quino-lin-6-yl-methyl)-3H-[1,2,3]tri-azolo[4,5-b]pyra-zin-5-yl)pipe-razine-1-carboxylate]: 0.182 µM; `N[C@@H]1CCN(c2cnc3nnn(Cc4ccc5c(c4)CCO5)c3n2)C1` [Example 42, (R)-1-[3-(2,3-Dihydro-benzofuran-5-ylmethyl)-3H-[1,2,3]triazolo[4,5-b]pyrazin-5-yl]-pyrrolidin-3-ylamine]: 0.08 µM.

Take `CC(=O)NCCNc1cnc2nnn(Cc3ccc4ncccc4c3)c2n1` [Example 111, N-(2-{[1-(quino-lin-6-yl-methyl)-1H-[1,2,3]tri-azolo[4,5-b]pyra-zin-6-yl]ami-no}ethyl)aceta-mide]: the Ki came out at 0.027 µM.

`c1cnc2ccc(Cn3nnc4ncc(N5CCCC5)nc43)cc2c1` [Example 164, 6-[(6-pyrrolidin-1-yl-1H-[1,2,3]tri-azolo[4,5-b]pyra-zin-1-yl)meth-yl]quinoline]: the Ki was 0.014 µM.

Still in this test, the particulars now being: Ki, HGFR 50 nM, Met-2 peptide 0.5 mM, ATP 300 μM, 37° C., absorbance 340 nm.
In turn, `OCCN(CCO)c1cnc2nnn(Cc3ccc4ncccc4c3)c2n1` [Example 77, 2,2′-{[1-(quino-lin-6-yl-methyl)-1H-[1,2,3]tri-azolo[4,5-b]py-razin-6-yl]imi-no}diethanol] gave a Ki of 0.019 µM. Same read-out and setting: next, `Cc1nccn1CC1(O)CCN(c2cnc3nnn(Cc4ccc5ncccc5c4)c3n2)C1` (stereo not shown) [Example 104, 3-[(2-methyl-1H-imi-dazol-1-yl)meth-yl]-1-[1-(quino-lin-6-yl-methyl)-1H-[1,2,3]tri-azolo[4,5-b]pyra-zin-6-yl]pyrro-lidin-3-ol]: 0.049 µM.

The values are drawn from patent publication US7732604B2, “Triazolopyrazine derivatives” (Pfizer Inc., priority 2006, dated 2010).
